pEC50, pIC50: −log10 of the molar value. Like-named read-outs stand apart in the source and are kept apart here.
Key:
[1] = test system: NCI-H358 cells (K-Ras G12C); assay: Potency assay: pERK in NCI-H358 cells; format: cell-based, human; conditions: Homo sapiens, NCI-H358; H358 KRAS G12C; read-out: pERK EC50
How it was run: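 Inhibition of cellular pERK after a 4 h treatment, detected by AlphaLISA or In-Cell Western. IC50 from a four-parameter concentration-response fit.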

[2] = target: KRAS G12V (Homo sapiens (Human), UniProt P01116+P62937, G12V); assay: Ras-Raf (BRAF RBD) disruption / FRET / MOA assay, KRAS G12V; format: biochemical
Sequence of KRAS G12V (P01116-2 other isoform, or with tags, fused parts or gaps G12V): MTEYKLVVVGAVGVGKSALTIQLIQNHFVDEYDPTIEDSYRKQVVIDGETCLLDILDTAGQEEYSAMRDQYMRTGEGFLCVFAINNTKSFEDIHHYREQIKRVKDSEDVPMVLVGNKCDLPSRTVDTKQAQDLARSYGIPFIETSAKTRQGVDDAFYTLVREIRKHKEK
Sequence of KRAS G12V (P62937 whole entry): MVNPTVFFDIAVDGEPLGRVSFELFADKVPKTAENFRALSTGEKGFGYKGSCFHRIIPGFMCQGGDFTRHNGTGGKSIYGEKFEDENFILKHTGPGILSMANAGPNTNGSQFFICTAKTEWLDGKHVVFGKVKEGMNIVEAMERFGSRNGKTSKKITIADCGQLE
How it was run: (§1)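 Compounds, top final concentration 30 μM in 10-point 3-fold series, incubated 3 hours at 25° C with nucleotide-loaded Ras, cyclophilin A and BRAF RBD.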

[3] = target: K-Ras G13C (Homo sapiens (Human), UniProt P01116+P62937, G13C); assay: Ras-Raf (BRAF RBD) disruption / FRET / MOA assay, KRAS G13C; format: biochemical; conditions: KRAS G13C, Ras-Raf disruption/FRET/MOA assay
Sequence of K-Ras G13C (P01116-2 other isoform, or with tags, fused parts or gaps G13C): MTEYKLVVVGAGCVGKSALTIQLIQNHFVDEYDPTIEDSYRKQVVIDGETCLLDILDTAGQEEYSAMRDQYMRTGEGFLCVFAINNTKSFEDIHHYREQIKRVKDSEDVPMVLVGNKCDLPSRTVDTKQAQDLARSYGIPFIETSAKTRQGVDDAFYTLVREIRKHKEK
Sequence of K-Ras G13C (P62937 whole entry): as the sequence (P62937 whole entry) above
How it was run: as §1

[4] = target: NRAS G12C (Homo sapiens (Human), UniProt P01111+P62937, G12C); assay: Ras-Raf (BRAF RBD) disruption / FRET / MOA assay, NRAS G12C; format: biochemical
Sequence of NRAS G12C (P01111 whole entry G12C): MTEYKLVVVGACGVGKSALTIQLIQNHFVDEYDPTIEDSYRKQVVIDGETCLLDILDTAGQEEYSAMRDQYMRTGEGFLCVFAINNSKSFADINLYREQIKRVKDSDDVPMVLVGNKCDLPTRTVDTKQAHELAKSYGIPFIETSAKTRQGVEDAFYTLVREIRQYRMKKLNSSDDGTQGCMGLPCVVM
Sequence of NRAS G12C (P62937 whole entry): as the sequence (P62937 whole entry) above
How it was run: as §1

[5] = target: KRAS G12D (Homo sapiens (Human), UniProt P01116+P62937, G12D); assay: Ras-Raf (BRAF RBD) disruption / FRET / MOA assay, KRAS G12D; format: biochemical; conditions: class symbols
Sequence of KRAS G12D (P01116-2 other isoform, or with tags, fused parts or gaps G12D): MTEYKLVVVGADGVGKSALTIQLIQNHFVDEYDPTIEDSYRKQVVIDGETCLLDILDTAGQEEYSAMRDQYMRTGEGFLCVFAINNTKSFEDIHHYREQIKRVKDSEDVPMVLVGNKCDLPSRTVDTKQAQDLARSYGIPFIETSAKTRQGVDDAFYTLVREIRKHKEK
Sequence of KRAS G12D (P62937 whole entry): as the sequence (P62937 whole entry) above
How it was run: as §1

[6] = test system: NCI-H358 (K-Ras G12C); assay: CellTiter-Glo cell viability assay, NCI-H358; format: cell-based, human; conditions: Homo sapiens, NCI-H358, 120 h, NCI-H358, 5-day treatment; class symbols; read-out: Additional H358 Cell Viability assay data (K-Ras G12C, IC50)
How it was run: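 Compounds were dispensed directly onto K-Ras mutant cells and incubated until day 5, then plates were equilibrated to room temperature for about 30 minutes before CellTiter-Glo luminescence. Signals were normalized as (sample/average DMSO)*100 and fitted by four-parameter logistic fit.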

[7] = target: KRAS G12S (Homo sapiens (Human), UniProt P01116+P62937, G12S); assay: Ras-Raf (BRAF RBD) disruption / FRET / MOA assay, KRAS G12S; format: biochemical; conditions: class symbols
Sequence of KRAS G12S (P01116-2 other isoform, or with tags, fused parts or gaps G12S): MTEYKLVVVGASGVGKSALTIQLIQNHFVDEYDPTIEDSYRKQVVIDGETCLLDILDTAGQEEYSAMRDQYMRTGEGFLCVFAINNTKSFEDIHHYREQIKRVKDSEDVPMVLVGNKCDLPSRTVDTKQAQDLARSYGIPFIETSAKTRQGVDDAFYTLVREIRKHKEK
Sequence of KRAS G12S (P62937 whole entry): as the sequence (P62937 whole entry) above
How it was run: as §1

[8] = target: KRAS WT (Homo sapiens (Human), UniProt P01116+P62937); assay: Ras-Raf (BRAF RBD) disruption / FRET / MOA assay, KRAS WT; format: biochemical
Sequence of KRAS WT (P01116-2 other isoform, or with tags, fused parts or gaps): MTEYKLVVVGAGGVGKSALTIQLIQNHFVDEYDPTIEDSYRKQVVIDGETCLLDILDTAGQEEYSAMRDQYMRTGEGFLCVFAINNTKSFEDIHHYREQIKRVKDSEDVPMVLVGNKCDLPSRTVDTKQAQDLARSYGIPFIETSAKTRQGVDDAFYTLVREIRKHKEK
Sequence of KRAS WT (P62937 whole entry): as the sequence (P62937 whole entry) above
How it was run: as §1

[9] = target: K-Ras G12C (Homo sapiens (Human), UniProt P01116+P62937, G12C); assay: Ras-Raf (BRAF RBD) disruption / FRET / MOA assay, KRAS G12C; format: biochemical; conditions: KRAS G12C, Ras-Raf disruption/FRET/MOA assay
Sequence of K-Ras G12C (P01116-2 other isoform, or with tags, fused parts or gaps G12C): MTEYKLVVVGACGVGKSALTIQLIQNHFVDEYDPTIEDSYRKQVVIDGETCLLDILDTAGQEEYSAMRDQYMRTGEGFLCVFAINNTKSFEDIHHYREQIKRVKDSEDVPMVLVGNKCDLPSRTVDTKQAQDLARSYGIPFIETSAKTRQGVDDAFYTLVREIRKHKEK
Sequence of K-Ras G12C (P62937 whole entry): as the sequence (P62937 whole entry) above
How it was run: as §1

[10] = target: KRAS G13D (Homo sapiens (Human), UniProt P01116+P62937, G13D); assay: Ras-Raf (BRAF RBD) disruption / FRET / MOA assay, KRAS G13D; format: biochemical
Sequence of KRAS G13D (P01116-2 other isoform, or with tags, fused parts or gaps G13D): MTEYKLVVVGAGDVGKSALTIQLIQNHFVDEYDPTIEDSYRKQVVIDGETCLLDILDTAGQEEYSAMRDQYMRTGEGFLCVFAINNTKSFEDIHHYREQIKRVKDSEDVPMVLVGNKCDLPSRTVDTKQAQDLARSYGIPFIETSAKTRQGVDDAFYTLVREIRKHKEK
Sequence of KRAS G13D (P62937 whole entry): as the sequence (P62937 whole entry) above
How it was run: as §1

[11] = read-out: IC50* KRAS G12V FRET data
[12] = read-out: IC50* KRAS G13C FRET data
[13] = read-out: IC50* NRAS G12C FRET data
[14] = Ras-Raf disruption/FRET/MOA assay, read-out: KRAS G12D FRET data IC50
[15] = Ras-Raf disruption/FRET/MOA assay, read-out: KRAS G12S FRET data IC50
[16] = read-out: IC50* KRAS WT FRET data
[17] = read-out: IC50* KRAS G12C FRET data
[18] = read-out: IC50* KRAS G13D FRET data

SMILES | pEC50 [1] | pIC50 [2, 11] | pIC50 [3, 12] | pIC50 [4, 13] | pIC50 [5, 14] | pIC50 [6] | pIC50 [7, 15] | pIC50 [8, 16] | pIC50 [9, 17] | pIC50 [10, 18] | pIC50 ([2]; IC50* KRAS G12V FRET data) | pIC50 ([3]; IC50* KRAS G13C FRET data) | pIC50 ([4]; IC50* NRAS G12C FRET data) | pIC50 ([5]; KRAS G12D FRET data IC50, Ras-Raf disruption/FRET/MOA assay) | pIC50 ([7]; KRAS G12S FRET data IC50, Ras-Raf disruption/FRET/MOA assay) | pIC50 ([8]; IC50* KRAS WT FRET data) | pIC50 ([9]; IC50* KRAS G12C FRET data) | pIC50 ([10]; IC50* KRAS G13D FRET data)
CCn1c(-c2cccnc2[C@H](C)OC)c2c3cc(ccc31)-c1csc(n1)C[C@H](NC(=O)[C@H](C(C)C)N(C)C(=O)[C@H]1CCN(C(=O)C#CC(C)(C)N(C)C)C1)C(=O)N1CCC[C@H](N1)C(=O)OCC(C)(C)C2 (atropisomer, axis not shown) [Example A291] | > 5.30 | 5.00 to 6.00 | 5.00 to 6.00 | 7.00 to 8.00 | < 5.00 | > 8.00 | 5.00 to 6.00 | 5.00 to 6.00 | > 8.00 | < 5.00 | – | – | – | – | – | – | – | –
CCn1c(-c2cccnc2[C@H](C)OC)c2c3cc(ccc31)-c1cc(O)cc(c1)C[C@H](NC(=O)[C@H](C(C)C)N(C)C(=O)[C@H]1CCN(C(=O)C#CC(C)(C)N(C)C)C1)C(=O)N1CCC[C@H](N1)C(=O)OCC(C)(C)C2 (atropisomer, axis not shown) [Example A292] | > 5.30 | 7.00 to 8.00 | > 8.00 | > 8.00 | 6.00 to 7.00 | > 8.00 | 7.00 to 8.00 | 6.00 to 7.00 | > 8.00 | 6.00 to 7.00 | – | – | – | – | – | – | – | –
C=CC(=O)N1CCC2(CC1)CCN([C@H](C(=O)N[C@H]1Cc3cc(O)cc(c3)-c3ccc4c(c3)c(c(-c3cccnc3[C@H](C)OC)n4CC)CC(C)(C)COC(=O)[C@@H]3CCCN(N3)C1=O)C(C)C)C2=O (atropisomer, axis not shown) [Example A296] | > 5.30 | 6.00 to 7.00 | 7.00 to 8.00 | 7.00 to 8.00 | 5.00 to 6.00 | > 8.00 | 6.00 to 7.00 | 7.00 to 8.00 | 7.00 to 8.00 | 7.00 to 8.00 | – | – | – | – | – | – | – | –
CCn1c(-c2cccnc2[C@H](C)OC)c2c3cc(ccc31)-c1cc(O)cc(c1)C[C@H](NC(=O)[C@H](C(C)C)N(C)C(=O)[C@H]1CCN(S(=O)(=O)C=C(C)C)C1)C(=O)N1CCC[C@H](N1)C(=O)OCC(C)(C)C2 (atropisomer, axis not shown) [Example A305] | > 5.30 | – | – | – | – | 7.00 to 8.00 | – | – | – | – | 7.00 to 8.00 | 7.00 to 8.00 | 7.00 to 8.00 | 5.00 to 6.00 | 6.00 to 7.00 | 6.00 to 7.00 | 7.00 to 8.00 | 6.00 to 7.00
CC#CC(=O)N1CC[C@H](C(=O)N(C)[C@H](C(=O)N[C@H]2Cc3cccc(c3)-c3ccc4c(c3)c(c(-c3cccnc3[C@H](C)OC)n4CC)CC(C)(C)COC(=O)[C@@H]3CCCN(N3)C2=O)C2CCCC2)C1 (atropisomer, axis not shown) [Example A310] | > 5.30 | 5.00 to 6.00 | 5.00 to 6.00 | 6.00 to 7.00 | < 5.00 | 7.00 to 8.00 | 5.00 to 6.00 | 5.00 to 6.00 | 6.00 to 7.00 | < 5.00 | – | – | – | – | – | – | – | –
C=CC(=O)N1CC[C@H](C(=O)N(C)[C@H](C(=O)N[C@H]2Cc3cccc(c3)-c3ccc4c(c3)c(c(-c3cccnc3[C@H](C)OC)n4CC)CC(C)(C)COC(=O)[C@@H]3CCCN(N3)C2=O)C2CC2)C1 (atropisomer, axis not shown) [Example A320] | > 5.30 | 5.00 to 6.00 | 5.00 to 6.00 | 6.00 to 7.00 | < 5.00 | 7.00 to 8.00 | 5.00 to 6.00 | 5.00 to 6.00 | 6.00 to 7.00 | < 5.00 | – | – | – | – | – | – | – | –
C=CC(=O)N1CC[C@H](C(=O)N(C)[C@H](C(=O)N[C@H]2Cc3cccc(c3)-c3ccc4c(c3)c(c(-c3cccnc3[C@H](C)OC)n4CC)CC(C)(C)COC(=O)[C@@H]3CCCN(N3)C2=O)C2CCC2)C1 (atropisomer, axis not shown) [Example A321] | > 5.30 | 5.00 to 6.00 | 5.00 to 6.00 | 6.00 to 7.00 | < 5.00 | 7.00 to 8.00 | 5.00 to 6.00 | 5.00 to 6.00 | 6.00 to 7.00 | 5.00 to 6.00 | – | – | – | – | – | – | – | –

Next, values leading:

pEC50 [1] | pIC50 [2, 11] | pIC50 [3, 12] | pIC50 [4, 13] | pIC50 [5, 14] | pIC50 [6] | pIC50 [7, 15] | pIC50 [8, 16] | pIC50 [9, 17] | pIC50 [10, 18] | pIC50 ([2]; IC50* KRAS G12V FRET data) | pIC50 ([3]; IC50* KRAS G13C FRET data) | pIC50 ([4]; IC50* NRAS G12C FRET data) | pIC50 ([5]; KRAS G12D FRET data IC50, Ras-Raf disruption/FRET/MOA assay) | pIC50 ([7]; KRAS G12S FRET data IC50, Ras-Raf disruption/FRET/MOA assay) | pIC50 ([8]; IC50* KRAS WT FRET data) | pIC50 ([9]; IC50* KRAS G12C FRET data) | pIC50 ([10]; IC50* KRAS G13D FRET data) | SMILES
> 5.30 | 6.00 to 7.00 | 7.00 to 8.00 | 6.00 to 7.00 | 5.00 to 6.00 | 7.00 to 8.00 | 6.00 to 7.00 | 6.00 to 7.00 | 6.00 to 7.00 | 6.00 to 7.00 | – | – | – | – | – | – | – | – | C/C=C(\C)S(=O)(=O)N1CC[C@H](C(=O)N(C)[C@H](C(=O)N[C@H]2Cc3cc(O)cc(c3)-c3ccc4c(c3)c(c(-c3cccnc3[C@H](C)OC)n4CC)CC(C)(C)COC(=O)[C@@H]3CCCN(N3)C2=O)C(C)C)C1 (atropisomer, axis not shown) [Example A306]
> 5.30 | 5.00 to 6.00 | 5.00 to 6.00 | 5.00 to 6.00 | < 5.00 | < 6.00 | < 5.00 | < 5.00 | 5.00 to 6.00 | < 5.00 | – | – | – | – | – | – | – | – | CCn1c(-c2cccnc2[C@H](C)OC)c2c3cc(ccc31)-c1cccc(c1)C[C@H](NC(=O)[C@H](C(C)C)N(C)C(=O)[C@H]1CCN(S(=O)(=O)C=C(C)C)C1)C(=O)N1CCC[C@H](N1)C(=O)OCC(C)(C)C2 (atropisomer, axis not shown) [Example A307]
> 5.30 | 5.00 to 6.00 | 5.00 to 6.00 | 5.00 to 6.00 | < 5.00 | > 8.00 | 5.00 to 6.00 | 5.00 to 6.00 | 5.00 to 6.00 | < 5.00 | – | – | – | – | – | – | – | – | CC#CC(=O)N1CC[C@H](C(=O)N(C)[C@H](C(=O)N[C@H]2Cc3nc(cs3)-c3ccc4c(c3)c(c(-c3cccnc3[C@H](C)OC)n4CC)CC(C)(C)COC(=O)[C@@H]3CCCN(N3)C2=O)C2CCCC2)C1 (atropisomer, axis not shown) [Example A309]
> 5.30 | 7.00 to 8.00 | 7.00 to 8.00 | 7.00 to 8.00 | 7.00 to 8.00 | 7.00 to 8.00 | 7.00 to 8.00 | 7.00 to 8.00 | 7.00 to 8.00 | 7.00 to 8.00 | – | – | – | – | – | – | – | – | C=CC(=O)N1C[C@@H]2[C@H](C1)[C@@H]2C(=O)N(C)[C@H](C(=O)N[C@H]1Cc2cc(O)cc(c2)-c2ccc3c(c2)c(c(-c2cccnc2[C@H](C)OC)n3CC)CC(C)(C)COC(=O)[C@@H]2CCCN(N2)C1=O)C(C)C (atropisomer, axis not shown) [Example A319]

From patent US11566007B2, “Ras inhibitors” (Revolution Medicines, Inc., priority 2019, dated 2023)
